Reference: patent US20130190324A1, “TOPICAL OCULAR DRUG DELIVERY” (The Regents of the University of Colorado, a body corporate, priority 2011, published 2013)
Values after ≈ are worked out from the molar mass of the structure shown. “Also recorded” adds a separate entry of the source. Where two headings read alike, the source gives them in different places.

Experiments:
[1] = system: New Zealand white rabbit cornea; assay: In vitro transport across rabbit cornea (Ussing chamber); format: in vitro ADME; details: for transport in presence of OCT competitive inhibitor MPP+: MPP+ 500 μM for GFX-ARG ion pair
Method: (§1) In vitro transport of […], and GFX-LYS were carried out across the New Zealand white rabbit cornea and sclera-choroid-[…]). Rabbit eyes were obtained within 24 hr of harvesting from Pel-Freez Biologicals (Rogers, Ark.) and shipped overnight in Hank's balanced salt solution on wet ice. Eyes were used immediately upon arrival. Eyes were washed with assay buffer and cleaned from the muscle and unwanted tissues. […] The small part of the sclera left with cornea helps in mounting the cornea on Ussing chambers. For isolation of the SCRPE, anterior and posterior parts were separated by a circumferential cut at the limbus. […] After separation of the retina, the eye cup was flattened with small cuts around the globe. […] A circulating water bath was used to maintain the temperature at 37° C. during the transport study. The pH of the assay buffer was maintained at 7.4 using 95% air-5% CO2 aeration which also helps in stirring of bathing solutions. Samples were collected (200 μL) from the receiver side every 30 minute for 3 hr and the lost volume was replaced with fresh assay buffer pre-equilibrated at 37° C. GFX levels were analyzed using an LC-MS/MS assay. […] GFX concentrations in the transport study and ocular tissue samples were analyzed using a validated LC-MS/MS method. […] Chromatographic separation of GFX and the internal standard moxifloxacin was performed on Obelisc C18 column (2.1×10 mm, 3 μm). Elution of analytes was performed using linear gradient elution with mobile phase consisting of 5 mM ammonium formate (pH 3.5) and acetonitrile (pH 3.5) with a flow rate of 300 μl/min and total run time of 6 min.

[2] = system: New Zealand white rabbit sclera-choroid-RPE (SCRPE); assay: In vitro transport across rabbit sclera-choroid-RPE (Ussing chamber); format: in vitro ADME; details: rabbit SCRPE; for transport in presence of OCT competitive inhibitor MPP+: MPP+ 500 μM for GFX-ARG ion pair
Method: as §1

[3] = In vivo ocular tissue distribution after single topical eye drop; set-up: species or system pigmented rabbits
Method: Male New Zealand Satin rabbits in the weight range of 1.8 to 3 kg were obtained from Western Oregon Rabbit Company (Philmoth, Oreg.). Rabbits were divided into two groups (2 animals each), one group received GFX solution (5 mg/ml) in sterile phosphate buffer saline (PBS), and the other group received the GFX-ARG (1:1) ion pair complex (5.0 mg/ml) solution in PBS. Rabbits were restrained in a rabbit restrainer and allowed to stabilize for 5-10 minutes. A topical eye drop (30 μl) of drug solution was applied in both eyes of rabbits using a positive displacement pipette (Gilson 10-100 μl) and sterile tips. To minimize the runoff of instilled dose, the eyelids were gently closed for few seconds after dosing. The time of dose administered was recorded for each animal. After 1 hr of dosing, blood samples were collected from the marginal ear vein and rabbits were euthanized by intravenous injection of sodium pentobarbitone (150 mg/kg) in the marginal ear vein. […]
GFX content in rabbit ocular tissues was measured from the tissues by acetonitrile based extraction. […]
The aqueous humor and vitreous samples were analyzed directly after dilution, without extraction. […]
GFX concentrations in the transport study and ocular tissue samples were analyzed using a validated LC-MS/MS method. […]

[4] = system: conjunctiva; assay: In vitro transport of GFX prodrugs across conjunctiva; format: in vitro ADME, Rabbit
[5] = physchem
[6] = system: calf sclera-choroid-RPE (SCRPE); assay: In vitro transport of substrate cassette across normoxic and hypoxic calf SCRPE
From the text: (§2) Animals used in this study were those that were sacrificed as part of other experiments approved by the Institutional Animal Care Committee of the Colorado State University (Fort Collins) and University of Colorado Anschutz Medical campus. Hypoxic and normoxic calf eyes were obtained from the Department of Physiology, School of Veterinary Medicine, Colorado State University (Fort Collins, Colo.). Briefly, 1 day old male Holstein calves (n=4) were kept in hypobaric hypoxic chambers (PB=445 mm Hg) for 2 weeks. For control experiment, age matched calves (n=4) were kept at ambient altitude (PB=650 mm Hg) and normoxia for two weeks. Hypoxic and normoxic rat eyes were obtained from the Department of Medicine, University of Colorado Anschutz Medical campus (Aurora, Colo.). Sprague Dawley rats (n=4) were maintained in hypobaric hypoxic chambers (PB=380 mm Hg) for 6 weeks and age matched controls were kept at ambient pressure and normoxia.
(§3) In vitro transport studies across hypoxic and control calf cornea and sclera-choroid-RPE (SCRPE) were carried using cassette dosing approach. A cassette of drug transporter substrates, Gly-Sar (PEPT), valacylovir (ATB^0+), MPP^+ (OCT), and phenylacetic acid (MCT) at a concentration of 100 μM each in assay buffer was prepared. Briefly, the calf eyes were harvested immediately after euthanasia and transferred to the laboratory on ice. Upon arrival in the lab, the eyes were washed with assay buffer and cleaned from muscle and unwanted tissues. Anterior and posterior parts were separated by circumferential cut at the limbus. Vitreous was removed and the neural retina was separated from the choroid-RPE by filling the eye cup with assay buffer. The retina afloat in assay buffer was isolated and the eye cup was divided into two pieces (˜1.5×1.5 cm) of sclera-choroid-RPE. Isolated tissues were mounted on modified Ussing chambers (Navicyte, Sparks, Nev.) such that the episcleral side of SCRPE or epithelial side of cornea was facing the donor chamber and retinal side or endothelial side of the cornea was facing the receiver chamber. The chambers were filled with 1.5 ml of assay buffer at 37° C. with (donor side) or without (receiver side) the cocktail of drug transporter substrates. For the study of effect of transporter inhibitors, cocktail mixture (500 μM) of transporter inhibitors was added on both donor and acceptor sides.
(§4) During the transport study, the bathing fluids were maintained at 37° C. using circulating warm water. The pH of the fluids was maintained at pH 7.4 using 95% air-5% CO2 aeration. Samples were collected (200 μL) from receiver side every hour for 6 hours and the removed volume was replaced with fresh assay buffer pre-equilibrated to 37° C. Drug levels were analyzed using a LC-MS/MS assay. Permeation data were corrected for dilution of the receiver concentrations with sample volume replenishment.
(§5) Analyte concentrations in transport study samples were measured using LC-MS/MS method after 5-fold dilution with acetonitrile to reduce the salt concentrations. A cassette analysis method was developed for simultaneous analysis of Gly-Sar, valacylovir, and MPP Phenyl acetic acid was analyzed separately with a negative ionization method and a normal phase separation method. An API-3000 triple quadrupole mass spectrometry (Applied Biosystems, Foster City, Calif., USA) coupled with a PerkinElmer series-200 liquid chromatography (Perkin Elmer, Waltham, Mass., USA) system was used for analysis. Gly-Sar, valacylovir and MPP were separated on Supelco C-5 column (2.1×10 mm, 3 μm) using water containing 0.1% formic acid (A) and acetonitrile:methanol (50:50 v/v) containing 0.1% formic acid (B) as mobile phase. A linear gradient elution at a flow rate of 0.3 ml/min with a total run time of 9 min was employed. Phenyl acetic acid was separated in normal phase separation mode on Obelisc-N silica column (2.1×10 mm, 3 μM) using 5 mM ammonium formate at pH 3.5 (A) and acetonitrile (B) as mobile phase.

[7] = system: calf cornea; assay: In vitro transport of substrate cassette across normoxic and hypoxic calf cornea
From the text: as §2, §3, §4, §5

[8] = cited from earlier work
[9] = Aqueous solubility of GFX and ion pair complex in PBS; format: physicochemical; details: phosphate buffer saline (PBS), thermodynamic from solid, phosphate buffer saline pH 7.4, 37° C., mean ± SD, n = 3
Method: PBS without amino acid was included as control. Samples were incubated at 37° C. for 24 hr in incubator shaker with constant shaking at 200 rpm. At the end of 24 hr of incubations, samples were filtered through 0.45 μm filter and filtrates were analyzed for drug content. All experiments were performed in triplicate.

[10] = single eye drop, cited from earlier work

SMILES: COc1c(N2CCNC(C)C2)c(F)cc2c(=O)c(C(=O)NCCCN(C)C)cn(C3CC3)c12 (stereo not shown) [GFX-OCT, 1-cyclopropyl-N-(3-(dimethylamino)propyl)-6-fluoro-8-methoxy-7-(3-methylpiperazin-1-yl)-4-oxo-1,4-dihydroquinoline-3-carboxamide]
- cumulative % transport / permeability compared with GFX (in words) [1]: significantly (p<0.01) higher than GFX
- transport in presence of OCT competitive inhibitor MPP+ [1]: significantly inhibited
- cumulative % transport / permeability compared with GFX (in words) [2]: significantly (p<0.01) higher than GFX
- transport in presence of OCT competitive inhibitor MPP+ [2]: significantly inhibited
- levels in posterior tissues compared with GFX (in words) ([3]; vitreous humor and CRPE, 1 h after topical eye drop): higher concentrations of GFX in all posterior tissues
- cumulative % transport compared with GFX (in words) [4]: significantly (p<0.01) higher than GFX
- transport in presence of OCT competitive inhibitor MPP+ [4]: significantly inhibited
- solubility ([5]; water for injection): 33.3 mg/mL (≈ 72.4 mM)

SMILES: COc1c(N2CCN(C(=O)C(N)CCCNC(=N)N)C(C)C2)c(F)cc2c(=O)c(C(=O)O)cn(C3CC3)c12 (stereo not shown) [GFX-ARG, 7-(4-(2-amino-5-guanidinopentanoyl)-3-methylpiperazin-1-yl)-1-cyclopropyl-6-fluoro-8-methoxy-4-oxo-1,4-dihydroquinoline-3-carboxylic acid]
- cumulative % transport / permeability compared with GFX (in words) [1]: significantly improved permeability
- transport in presence of OCTN inhibitor L-carnitine ([1]; L-carnitine 500 μM): did not show any significant inhibitory effect
- transport in presence of OCT competitive inhibitor MPP+ [1]: inhibited significantly
- cumulative % transport in presence vs absence of ATB0+ inhibitor α-methyl tryptophan ([1]; inhibitor 500 μM): no significant difference
- cumulative % transport / permeability compared with GFX (in words) [2]: significantly improved permeability
- transport in presence of OCTN inhibitor L-carnitine ([2]; L-carnitine 500 μM): did not show any significant inhibitory effect
- transport in presence of OCT competitive inhibitor MPP+ [2]: inhibited significantly
- cumulative % transport in presence vs absence of ATB0+ inhibitor α-methyl tryptophan ([2]; inhibitor 500 μM): no significant difference
- GFX ocular tissue levels compared with GFX alone (in words) ([3]; all ocular tissues, 1 hr after single topical 30 μl eye drop, 5 mg/ml in PBS): higher concentrations of GFX in all ocular tissues; also recorded: enhanced ocular delivery to all ocular tissues
- solubility ([5]; water): 25.5 mg/mL (≈ 48 mM)
- solubility ([5]; water for injection): 25.5 mg/mL (≈ 48 mM)

SMILES: CC(C)[C@H](N)C(=O)OCCOCn1cnc2c(=O)[nH]c(N)nc21 [valacylovir]
- apparent permeability (Papp) across hypoxic vs normoxic tissue (in words) ([6]; calf SCRPE): significantly higher across normoxic SCRPE than hypoxic SCRPE
- transport across hypoxic vs normoxic tissue (in words) ([6]; calf SCRPE, cassette 100 μM): significantly decreased in hypoxic calf SCRPE; also recorded: significantly higher across normoxic calf SCRPE than hypoxic calf SCRPE
- decrease in cumulative % transport across hypoxic tissue ([6]; hypoxic vs normoxic calf SCRPE): 61%
- apparent permeability (Papp) across hypoxic vs normoxic tissue (in words) ([7]; calf cornea): significantly higher across normoxic cornea than hypoxic cornea
- transport across hypoxic vs normoxic tissue (in words) ([7]; calf cornea, cassette 100 μM): significantly higher across normoxic calf cornea than hypoxic calf cornea
- decrease in cumulative % transport across hypoxic tissue ([7]; hypoxic vs normoxic calf cornea): 36%
- increase in oral bioavailability as compared to parent acyclovir [8]: three to five fold increase

SMILES: COc1c(N2CCNC(C)C2)c(F)cc2c(=O)c(C(=O)O)cn(C3CC3)c12 (stereo not shown) [GFX, gatifloxacin]
- solubility at 24 h [9]: 5.49 mg/mL (≈ 14.6 mM)
- reported Tmax ([10]; aqueous humor): 19.8 min
- reported Tmax ([10]; cornea): 4.98 min
- solubility ([5]; water): 0.64 mg/mL (≈ 1.7 mM)
- solubility ([5]; water for injection): 2.5 mg/mL (≈ 6.66 mM)
